{
  "source": "patent US9981899B2",
  "about": "“Composition containing reduced coenzyme Q10 and production method thereof” (KANEKA CORPORATION, priority 2006, dated 2018)",
  "key": {"[1]": {"assay": "Oxidative stability: residual ratio of reduced coenzyme Q10 after preservation at 40° C. in the air in light shading for 30 days", "format": "physicochemical", "protocol": "The reduced coenzyme Q10 residual ratio (%) after preservation at 40° C. in the air for 30 days under shading conditions of the particulate composition containing reduced coenzyme Q10 of the present invention is not particularly limited. It is not less than about 50 wt %, preferably not less than about 60 wt %, more preferably not less than about 70 wt %, still more preferably not less than about 80 wt %, particularly preferably not less than about 90 wt %.\nThe purity of reduced coenzyme Q10 and the weight ratio (%) of reduced coenzyme Q10 were determined by the following HPLC analysis (weight ratio (%)={reduced coenzyme Q10/(oxidized coenzyme Q10+reduced coenzyme Q10)}×100)."}, "[2]": {"assay": "Crystallinity of reduced coenzyme Q10 in the particulate composition by DSC", "format": "physicochemical", "conditions": "after preservation at 25° C. in the air for 30 days; measured/theoretical melting calorie", "protocol": "The crystallinity of reduced coenzyme Q10 in the obtained particulate composition was determined by the following DSC (differential scanning calorimeter [EXSTAR6000 manufactured by Seiko Instruments Inc.]) analysis after preservation at 25° C. in the air for 30 days. The particulate compositions obtained in Examples and Comparative Examples were preserved under the above-mentioned given conditions, 10 mg thereof was taken in an aluminum pan and the temperature was elevated from 15° C. to 70° C. at a temperature rise rate of 5° C./min, during which the crystal melting calorie was measured. The crystallinity was calculated according to the following formula using the theoretical melting calorie determined from the content of reduced coenzyme Q10 in the particulate composition and the data of melting calorie actually measured by DSC. Crystallinity (%)=(measured melting calorie/theoretical melting calorie)×100 (Volume Average Particle Size)"}},
  "data": [
    {"smiles": "COc1c(O)c(C)c(C/C=C(\\C)CC/C=C(\\C)CC/C=C(\\C)CC/C=C(\\C)CC/C=C(\\C)CC/C=C(\\C)CC/C=C(\\C)CC/C=C(\\C)CC/C=C(\\C)CCC=C(C)C)c(O)c1OC", "note": "[Comparative Example 1, reduced coenzyme Q10]", "values": [
      {"measurement": "residual ratio of the reduced coenzyme Q10", "setting": "[1]", "result": 28, "unit": "%"},
      {"measurement": "crystallinity measured by DSC", "setting": "[2]", "result": 100, "unit": "%"}
    ]}
  ]
}
